This note sets out measurements from patent publication US9611485B2, “Polynucleotide and polypeptide sequences associated with herbicide tolerance” (priority 2010, dated 2017).

The test system of test [1] is tobacco T1 seeds and wild type seeds. The test can be described thus: Germination of tobacco T1 seeds on Gelrite plates containing saflufenacil. Format: in vivo. As for the experimental part:
Unsprayed clones of the transgenic tobacco plants described above were grown in a greenhouse until flowering and were allowed to self pollinate. Seeds were harvested and used for further experiments. Transgene insertion copy number was not determined for these plants, but for single copy plants the seeds would be expected to segregate 1homozygous:2hemizygous:1null for the transgene.
T1 seeds from multiple transgenic events carrying the resistant and susceptible alleles, and wild type seeds, were germinated on 1.5% Gelrite (no nutrients or minerals) plates and kept in a growth chamber at 26° C. under a 16 hr light regime. Plate media contained saflufenacil at concentrations down to 0.45 parts per billion (ppb). […] All seed germinated and grew normally on Gelrite plates lacking saflufenacil.

The test system of test [2] is Tobacco (cv. Petite Havana) T0 plants. The test can be described thus: Saflufenacil foliar spray of transgenic T0 tobacco plants, visual injury. Format: in vivo. To be noted: 12.5 g/ha spray; for mean visual injury score: tobacco T0 plants carrying the susceptible allele. The protocol:
Tobacco (cv. Petite Havana) was transformed by particle bombardment with plant expression vectors using a strong constitutive promoter to control the GM ABCT1 SUS (susceptible allele, SEQ ID NO: 125) or GM ABCT1 RES (resistant allele, SEQ ID NO: 124) genes using the following protocol: • 1) Weigh 1 mg 0.6 micron gold powder (for 8 shots). Add 1 ml 100% ethanol Sonicate 2 min. Centrifuge at 13,000 rpm×5 sec. Remove Supernatant. Repeat 3 times. • 2) Add 1 ml sterile double-deionized water. Sonicate 2 min. Centrifuge at 13,000 rpm×5 sec. Remove Supernatant. Repeat 2 times. • 3) Add 321 μl sterile water. Vortex and sonicate 2 min. • 4) Add 4 μl of DNA (1 μg/μl concentration) and vortex briefly. • 5) Add 100 μl of 5M CaCl2 and 80 μl of 0.1M Spermidine (14 μl of Spermidine+985.6 μl water prepared freshly). Mix with finger and vortex 2 sec. • 6) Incubate on ice for 1 min. Spin down at 13,000 rpm for 2 sec and remove supernatant. • 7) Add 500 μl of 100% ethanol. Pipette up and down a few times to wash. (It is important to break all big aggregates at this stage). Vortex 2 sec. Spin down at 13,000 rpm for 2 sec and remove supernatant. • 8) Re-suspend in 85 μl of 100% ethanol. Keep on ice. Vortex solution before spreading 10 μl of DNA prep on flying disk. (Sterilize in 100% ethanol for 5-10 min and air dry, also sterilize and air dry 1100 psi rupture disk). • 9) Place tobacco leaf (cv. Petit Havana) abaxial side up in the center of a petri plate containing MS01 medium (MS+B5 vitamins (Phytotechnology M519), Sucrose 30 g/l, agar 8 g/l, BA 2 mg/L, NAA 0.05 mg/L). • 10) Bombard with 28 mm Hg vacuum, position plate at 9 cm (2nd position from bottom), 1100 psi rupture disk. After bombardment, invert leaves so bombarded side and petioles are in contact with medium. • 11) Maintain leaves under 16 hrs/day dim light (<5 μEinstein) for 2-3 days. • 12) Cut leaves into small pieces (0.5 cm×0.5 cm) in MSB-Co (MS+Vit, Glucose 10 g/L, BA 50 mg/L, pH5.2), then blot dry on sterile filter paper and place with bombarded side in contact with the MS01 medium containing hygromycin 25 mg/L under 16 hrs/day light (80-120 μEinstein). When shoots appear, cut and place directly in selection media. • 13) Until shoots appear, change selection medium every 2 weeks. • 14) When entire plantlets are formed (1-2 cm high), leaves are cut into approx. 1-2 mm segments and re-cultured on MS01 medium containing hygromycin 25 mg/L and 8 g/L agar. Subculture to fresh medium every 3 weeks. When new shoots appear, isolate single shoots and transfer onto ½ MS media (M519 2.22 g/L, sucrose 15 g/L, agar 6 g/L).
Stable transgenic events were tested for presence of the transgene by PCR, and transcription of the genes was confirmed by qRT-PCR. Three clonal plants were produced from each transgenic event; two plants from each event were used for the spray experiment.
Plants were grown until 3 to 5 expanded true leaves were present and then sprayed with saflufenacil at a rate of 12.5 g/ha. All treatments were applied in a spray volume of 140 L/ha. Ammonium sulfate was included at 1% w/v. Treated plants were compared to untreated plants of similar genetic background and evaluated for herbicide injury at seven and seventeen days after treatment. Visual injury was on a scale of 0 to 100% injury (0=no effect to 100=dead plant).

Test [3] has as its system Soybean (cv. Jack) T0 plants. Kind of test: Saflufenacil foliar spray of transgenic T0 soybean plants, visual injury. To be noted: 3 g/ha foliar spray, 7 days after treatment, 0=no effect, 100=dead plant. Format: in vivo, Glycine max. The protocol:
Soybean was transformed essentially as described in Li et al. (2007) Plant Mol Biol 65:329-341. Soybean (cv. Jack) embryogenic cultures were transformed by particle bombardment with plant expression vectors using a strong constitutive promoter to control the GM ABCT1 SUS (susceptible allele, SEQ ID NO:125) or GM ABCT1 TOL (resistant allele, SEQ ID NO: 124) genes. Stable transgenic events were tested for presence of the transgene by PCR, but no confirmation of expression was performed. Three clonal plants were produced from each transgenic event.
These T0 plants were grown to the V2 to V8 growth stage and then sprayed with saflufenacil at a rate of 3 g/ha. All treatments were applied in a spray volume of 280 L/ha. The spray mixture contained acetone, water, glycerin and surfactant. Treated plants were compared to untreated plants of similar genetic background and evaluated for herbicide injury at seven days after treatment. Visual injury was on a scale of 0 to 100% injury (0=no effect to 100=dead plant). Plants are also visually evaluated for agronomic effects such as interveinal and veinal chlorosis, reddening, leaf malformation, necrosis, apical withering/death/regrowth, and whole plant height.

The subject of test [4] is tobacco T1 seedlings and wild type. The test can be described thus: Saflufenacil soil drench of tobacco T1 seedlings in pots. Format: in vivo. To be noted: three days after treatment. An excerpt: T1 seeds were sown in four inch pots containing soil and allowed to germinate for five days. At this point, with cotyledons visible above the soil, pots were drenched with 100 mls saflufenacil in water at 0.45 ppb. The solution was applied to soil, avoiding direct contact with plant cotyledons.

With `CC(C)N(C)S(=O)(=O)NC(=O)c1cc(-n2c(=O)cc(C(F)(F)F)n(C)c2=O)c(F)cc1Cl` [saflufenacil], the “difference between transgenic seed with either GM ABCT1 allele and wild type seed” value in test [1] (Gelrite plates containing saflufenacil down to 0.45 ppb) was “No visible difference”. The “seed germination and growth” value in test [1] (plate media at 0.91 ppb and 0.45 ppb, transgenic T1 and wild type tobacco seed) is “seeds germinated but were bleached and failed to grow”. For the same molecule, the seed germination result in test [1] (plate media at concentrations above 0.91 ppb, transgenic T1 and wild type tobacco seed) is reported as “no germination was observed”. Besides, the mean visual injury in test [2] (tobacco T0 plants carrying the resistant allele, seven days after treatment) amounted to 63%; in test [2] (tobacco T0 plants carrying the resistant allele, seventeen days after treatment), 46%; in test [2] (transgenic control tobacco plants carrying an unrelated transgene, seven days after treatment), 63%; in test [2] (transgenic control tobacco plants carrying an unrelated transgene, seventeen days after treatment), 53%; in test [3] (soybean cv. Jack T0 plants carrying the resistant allele (GM ABCT1 TOL)) it was 72%; in test [3] (wild type soy plants), 84%. For the same molecule, the “mean visual injury score” value was 77% in test [2] (seven days after treatment), 61% in test [2] (seventeen days after treatment) and 59% in test [3] (soybean cv. Jack T0 plants carrying the susceptible allele (GM ABCT1 SUS)). Besides, the seedling condition entry in test [4] (100 mls at 0.45 ppb drenched to soil five days after sowing) is “all seedlings were severely bleached and appeared dead”. Besides, the “differences between transgenic lines and wild type” value in test [4] (100 mls at 0.45 ppb soil drench) is given as “No visible differences”.
